Laboratory results as given in paper PMC4704819, “Honey Bee Allatostatins Target Galanin/Somatostatin-Like Receptors and Modulate Learning: A Conserved Function?” (PLoS ONE, 2016).
*1 amine or outer side, *2 acyl side, *3 side chain or, on linkers, in order; H or OH if unused. Where a SMILES comes first, the peptide text is derived from it. Where no end group is shown, it is not given here. Side-chain parts run from the residue outwards. [ ]: non-standard residue; d: D form. The star is where a group is joined. Ethylenediamine = C(CN[*:2])N[*:1]; Hyp = O=C(O)[C@@H]1C[C@@H](O)CN1; Phg = N[C@H](C(=O)O)c1ccccc1; CO = O=C([*:1])[*:2]; Bn = c1ccc(C*)cc1

Legend:
Apime-ASTA-R [1] = target: T1, Apime-ASTA-R (Apis mellifera, UniProt A0A7M7ILT1); assay: Intracellular cAMP reporter assay, HEK293 cells expressing Apime-ASTA-R; type: cell-based
T1 sequence (A0A7M7ILT1 1-361): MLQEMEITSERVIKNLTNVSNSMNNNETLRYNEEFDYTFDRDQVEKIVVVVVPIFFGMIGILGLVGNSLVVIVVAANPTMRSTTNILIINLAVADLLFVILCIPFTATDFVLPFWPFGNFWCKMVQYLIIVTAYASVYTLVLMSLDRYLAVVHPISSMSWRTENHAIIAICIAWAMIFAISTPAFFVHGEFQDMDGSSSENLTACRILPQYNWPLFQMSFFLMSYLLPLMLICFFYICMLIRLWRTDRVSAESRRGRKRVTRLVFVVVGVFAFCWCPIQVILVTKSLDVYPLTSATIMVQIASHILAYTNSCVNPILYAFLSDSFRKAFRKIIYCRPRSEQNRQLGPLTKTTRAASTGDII
Method: (§1) For intracellular cAMP measurements, cells were bathed in trypsin EDTA and collected, then suspended in fresh DMEM. Transfections with pRK5-ApimeAstC-R, pRK5-ApimeAstA-R or empty pRK5 vector were carried out in 15 ml Falcon tubes. Transfection medium for HEK293 cells was prepared using the Lipofectamine LTX kit (Invitrogen) with 2.5 ml Opti-MEM® (Gibco), 12.5 μl Plus™ Reagent and 4 μg of ApimeASTC-R (or ApimeASTA-R, or empty) expression construct, and 2 μg of CRE(6x)-Luc plasmid. The luciferase ORF, downstream of six tandem repeats of a cyclic AMP responsive element (CRE), in front of a minimum collate promoter, was used as a reporter gene (this reporter plasmid has been used by others)
We followed a previousy published protocol: HEK293 cells in Dulbecco's Modified Eagles Medium nutrient mixture F12-Ham (DMEM/F12, Sigma–Aldrich) supplemented with 10% heat-inactivated fetal bovine serum (Gibco), 100 IU/ml penicillin, 100 μg/ml streptomycin (Gibco) were maintained in an incubator at 37°C with constant supply of 5% CO2, until they reached 60–80% confluence. Cells were then bathed in trypsin EDTA (Gibco) until rounded. The flask was then tapped to loosen the cells, which were subsequently washed off with 5 ml DMEM/F12. […]
Prior to measuring cAMP, the cell medium was removed by carefully inverting the 96-well plate on filter paper and quickly replaced with 100 μl of DMEM/F12 without phenol red (Invitrogen), but containing 200 μM 3-isobutyl-1-methylxanthine (IBMX, Sigma–Aldrich) to prevent cAMP breakdown, as well as drugs to be tested. […] The 96-well plate was then placed in the dark for 15 min before light emission resulting from luciferase enzymatic activity was recorded. Measurements lasting 0.2 s/well were taken every 55 s for 10 cycles using a FLUOstar Omega microplate reader (BMG Labtech). Results were analyzed by means of the Omega software packages and further processed by Excel and GraphPad Prism softwares. […]

Apime-ASTC-R [2] = target: T2, Apime-ASTC-R (Apis mellifera, UniProt A0A7M7GNE5); assay: Intracellular cAMP reporter assay, HEK293 cells expressing Apime-ASTC-R; type: cell-based; settings: Fig 5B, 2 transfections in duplicates or triplicates
T2 sequence (A0A7M7GNE5 1-423): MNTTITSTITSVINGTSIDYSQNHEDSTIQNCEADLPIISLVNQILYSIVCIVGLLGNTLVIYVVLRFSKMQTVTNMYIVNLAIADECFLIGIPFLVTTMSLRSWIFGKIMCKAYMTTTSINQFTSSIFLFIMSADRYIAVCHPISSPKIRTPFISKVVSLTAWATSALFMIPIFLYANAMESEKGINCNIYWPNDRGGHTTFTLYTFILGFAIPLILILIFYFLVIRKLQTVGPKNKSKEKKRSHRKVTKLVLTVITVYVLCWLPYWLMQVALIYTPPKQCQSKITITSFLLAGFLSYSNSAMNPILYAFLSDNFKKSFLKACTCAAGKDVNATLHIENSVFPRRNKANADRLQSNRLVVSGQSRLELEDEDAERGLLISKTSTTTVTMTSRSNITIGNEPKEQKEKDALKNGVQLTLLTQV
Method: as §1
(§2) We followed a previousy published protocol: HEK293 cells in Dulbecco's Modified Eagles Medium nutrient mixture F12-Ham (DMEM/F12, Sigma–Aldrich) supplemented with 10% heat-inactivated fetal bovine serum (Gibco), 100 IU/ml penicillin, 100 μg/ml streptomycin (Gibco) were maintained in an incubator at 37°C with constant supply of 5% CO2, until they reached 60–80% confluence. Cells were then bathed in trypsin EDTA (Gibco) until rounded. The flask was then tapped to loosen the cells, which were subsequently washed off with 5 ml DMEM/F12. The cells were gently centrifuged at 800 rpm for 5 minutes and carefully suspended in fresh DMEM, which was divided in two for transfection with receptor constructs or empty vectors. After 5 min at room temperature, 30 μl LTX was added. After an incubation period of 30 min at room temperature, the DNA/LTX mix was added to the cells. The cells were then aliquoted (100 μl per well) into a clear bottom 96-well plate (Greiner bio-one #655090) and incubated overnight (37°C, 5% CO2).
(§3) Prior to measuring cAMP, the cell medium was removed by carefully inverting the 96-well plate on filter paper and quickly replaced with 100 μl of DMEM/F12 without phenol red (Invitrogen), but containing 200 μM 3-isobutyl-1-methylxanthine (IBMX, Sigma–Aldrich) to prevent cAMP breakdown, as well as drugs to be tested. In each experiment, some wells were used to measure basal levels of cAMP in the cells (negative control), while others were used to measure cAMP levels in cells exposed to 10 μM forskolin analogue (NKH-477, Sigma Aldrich, positive control). […] All cells were incubated at 37°C and 5% CO2 for 3–4 h to allow transcription of the reporter gene before 100 μl of freshly reconstituted Steadylite Plus™ substrate (PerkinElmer) was added to each well. The 96-well plate was then placed in the dark for 15 min before light emission resulting from luciferase enzymatic activity was recorded. Measurements lasting 0.2 s/well were taken every 55 s for 10 cycles using a FLUOstar Omega microplate reader (BMG Labtech). Results were analyzed by means of the Omega software packages and further processed by Excel and GraphPad Prism softwares. In order to facilitate comparisons across experiments, bioluminescence levels are expressed relative to those in mock-transfected cells (transfected with the vector devoid of the receptor sequence) untreated with NKH-477, which were arbitrarily set at 100.
(§4) To test this prediction, we expressed the two receptors separately in HEK293 cells together with the luciferase reporter gene, downstream of the cAMP response element, CRE, but without exogenous G proteins.

[3] = tested on: mock-transfected HEK293 cells; assay: Intracellular cAMP reporter assay, mock-transfected HEK293 cells (empty vector); type: cell-based, human
Method: as §1, §2, §3, §4

Apime-ASTC-R [4] = target: T2, Apime-ASTC-R; assay: Intracellular calcium measurement, HEK293 cells expressing Apime-ASTC-R with Gαqi9 chimeric G protein; type: cell-based; settings: concentrations up to 0.1mM; data not shown
Method: (§5) This vector contains an ATG initiation codon in phase with a mammalian signal peptide sequence of metabotropic glutamate receptor 5 to address receptor protein to the cell membrane, with a hemagglutinin sequence (TAG HA), and MluI and HindIII restriction sites used for cloning. The coding regions of the genes of interest were PCR amplified from cDNA template. After extraction from whole brains, 1 μg of total RNA was reverse-transcribed with random primers. […] PCR reactions included: 30s at 98°C, then 30 cycles of 10s at 98°C, 30s at 60°C, 1 min at 72°C and finally, 5 minutes at 72°C. Cloning required several amplification and digestion steps to insert the full cDNA sequences in the vector.
In all cases, 2 μg of plasmid DNA encoding the Gαqi9 chimeric G protein was included to enable artificial coupling of the receptors to phospholipase C. […]
Cells were washed with freshly prepared 20 mM Hepes, 1 mM MgSO4, 3.3 mM Na2CO3, 1.3 mM CaCl2, 0.1% BSA, 2.5 mM probenecid in 1X Hank's balanced salt solution (Gibco #14185), pH7.4 buffer and loaded with 1 μM Ca^2+-sensitive fluorescent dye Fluo-4 AM (Invitrogen # F14202) for 1 h at 37°C. […] Fluorescence signals (excitation 485 nm, emission 525 nm) were measured by using the fluorescence microplate reader Flexstation (Molecular Devices) at sampling intervals of 1.5 s for 60 s. […]

Apime-ASTA-R [5] = target: T1, Apime-ASTA-R; assay: Intracellular calcium measurement, HEK293 cells expressing Apime-ASTA-R with Gαqi9 chimeric G protein; type: cell-based
Method: as §5
In all cases, 2 μg of plasmid DNA encoding the Gαqi9 chimeric G protein was included to enable artificial coupling of the receptors to phospholipase C. Electroporation (250 V, 800 μF, Biorad GenePulser X-cell) was performed in a total volume of 300 μl of electroporation buffer (50 mM K2HPO4, 20 mM CH3COOK, 20 mM KOH, 26.5 mM MgSO4, pH 7.4). After electroporation, cells were resuspended in 10 ml of culture medium and split (100 μl/well) into polyornithine-coated (Sigma #P3655), black-walled, clear bottom 96-well plates (Greiner bio-one #655090) and grown for a further 48 h prior to analyzing receptor properties. All products used for cell culture were purchased from Invitrogen Life Technologies.
Cells were washed with freshly prepared 20 mM Hepes, 1 mM MgSO4, 3.3 mM Na2CO3, 1.3 mM CaCl2, 0.1% BSA, 2.5 mM probenecid in 1X Hank's balanced salt solution (Gibco #14185), pH7.4 buffer and loaded with 1 μM Ca^2+-sensitive fluorescent dye Fluo-4 AM (Invitrogen # F14202) for 1 h at 37°C. Cells were washed once and incubated with 50 μl of buffer. A plate was prepared with the various concentrations of peptides to be tested, and 50 μl of 2X concentrated-drug solution was added in each well after 20 s of recording. Fluorescence signals (excitation 485 nm, emission 525 nm) were measured by using the fluorescence microplate reader Flexstation (Molecular Devices) at sampling intervals of 1.5 s for 60 s. All represented data correspond to means ± standard deviation (SD) from experiments performed in triplicate.
This method allows detecting ligand-induced activation of the receptor by measuring the release of intracellular calcium.

Compound: C=C[C@@]1(C)CC(=O)[C@]2(O)[C@@]3(C)[C@@H](O)CCC(C)(C)[C@@H]3[C@H](OC(=O)CCN(C)C)[C@H](OC(C)=O)[C@@]2(C)O1.Cl [NKH-477, reference compound]
- ability to increase bioluminescence versus mock-transfected cells, in words (Apime-ASTA-R [1]; Fig 5B, 2 transfections in duplicates or triplicates): reduced ability to increase bioluminescence levels
- increase in cAMP levels (bioluminescence) (Apime-ASTA-R [1]; same concentrations as in mock cells (10 nM to 10 μM), CRE-luciferase, IBMX, Fig 5B, 2 transfections in duplicates or triplicates): 1.59 fold
- ability to increase bioluminescence versus mock-transfected cells, in words (Apime-ASTC-R [2]): reduced ability to increase bioluminescence levels
- increase in cAMP levels (bioluminescence) (Apime-ASTC-R [2]; same concentrations as in mock cells (10 nM to 10 μM), CRE-luciferase, IBMX): 1.24 fold
- increase in bioluminescence (cAMP), in words ([3]; 10 nM to 10 μM): increased bioluminescence in a dose-dependent manner
- increase in bioluminescence (cAMP) compared to baseline ([3]; 10 μM, CRE-luciferase, 200 μM IBMX, Fig 5B, 2 transfections in duplicates or triplicates): 2.5 fold

Compound: NCCCC[C@@H]1NC(=O)[C@@H](Cc2c[nH]c3ccccc23)NC(=O)[C@H](c2ccccc2)NC(=O)[C@@H]2C[C@@H](OC(=O)NCCN)CN2C(=O)[C@H](Cc2ccccc2)NC(=O)[C@H](Cc2ccc(OCc3ccccc3)cc2)NC1=O [SOM230, reference compound] (cyclo([Hyp]([CO-Ethylenediamine])[Phg][dW]KY(Bn)F); ring closure inferred)
- calcium release (Apime-ASTC-R [4]): No calcium release was detected
- calcium release (Apime-ASTA-R [5]; concentrations up to 0.1mM, data not shown): No calcium release was detected

Compound: GRQPYSFGL-NH2 [Apime-ASTA]
- EC50 (Apime-ASTA-R [1]; CRE-luciferase, 200 μM IBMX, no exogenous G protein, 37°C 3–4 h, normalized to mock-transfected cells, 3 independent transfections in triplicate, Fig 5C, read-out: mean EC50, increase in cAMP levels): 103 nM
- EC50 (Apime-ASTA-R [5]; HEK293, Gαqi9, Fluo-4 AM, Flexstation (ex 485 nm, em 525 nm), pH 7.4, experiments in triplicate, read-out: EC50, calcium release): 1.99 nM
